Test results: patent US20050245434A1, “Oxygenated dibenzo-alpha-pyrone chromoproteins” (priority 2004, published 2005)
In brackets after ≈: the same amount, converted by molar mass.

System: Fe-ADP-Ascorbate induced lipid peroxidation (LPO) in rat brain
Assay: Inhibition of Fe-ADP-ascorbate induced lipid peroxidation (LPO) in rat brain homogenate
Format: biochemical, Albino rats (Sprague Dawley strain)
Details: 37° C., 30 minutes
Protocol: Inhibition of Fe-ADP-Ascorbate Induced Lipid Peroxidation (LPO) in Rat Brain by DBP and DCPs
Albino rats (Sprague Dawley strain) were sacrificed by cervical dislocation and decapitation. Brains were dissected out and 10% w/v homogenate was prepared in 0.15 M KCl. The brain homogenate was centrifuged at 1500 rpm for 10 minutes and the supernatant was used for the study. The incubation mixture contained in a final volume of 1 ml., brain homogenate (500 μl), distilled water (100 μl) or test compounds dissolved in solvents at different concentrations (10 to 100 μg/ml of the final volume). Peroxidation was initiated by adding FeCl3 (100 μM), ADP (1 mM) and ascorbate (100 μM) to give the final concentration stated. After incubating at 37° C. for 30 minutes, the reaction was stopped by adding acetic acid buffer (1.5 ml, pH 3.5) and thiobarbituric acid solution (1.5 ml, pH 7.4) to 1 ml of LPO mixture. The reaction mixture was heated at 85° C. for 30 minutes, cooled, centrifuged (2000 rpm for 10 minutes) and the absorbance of the supernatant was measured at 532 nm. IC50 values were calculated in the usual way by plotting the concentration of the test compounds versus percent inhibition of LPO.

IC50 (effect on LPO) [µg/mL] | SMILES
30 (≈ 131 µM) | O=c1oc2cc(O)ccc2c2ccc(O)cc12 [3,8-Dihydroxydibenzo-alpha-pyrone]
70 (≈ 397 µM) | O=C1O[C@H]([C@@H](O)CO)C(O)=C1O [Ascorbic acid]
56 | CC(=O)Oc1c(C)c(C)c2c(c1C)CCC(C)(CCC[C@H](C)CCC[C@H](C)CCCC(C)C)O2 (stereo partly drawn) [Vitamin E acetate]
